From patent US8598190B2, “3H-imidazo [4, 5-C] pyridine-6-carboxamides as anti-inflammatory agents” (Boehringer Ingelheim International GmbH, priority 2008, dated 2013)

Biological target: T1, recombinant human mPGES-1 (Homo sapiens, UniProt O14684)
T1 construct: made in house; host or cells: Rosetta E. coli (microsomal/membrane fraction)
T1 sequence (O14684 1-152): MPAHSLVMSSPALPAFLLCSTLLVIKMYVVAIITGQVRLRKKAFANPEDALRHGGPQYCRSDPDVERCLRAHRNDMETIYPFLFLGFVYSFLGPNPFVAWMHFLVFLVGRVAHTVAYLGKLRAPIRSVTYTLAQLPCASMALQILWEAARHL
Assay: mPGES-1 inhibition test (microsomes, HTRF detection of PGE2)
Assay type: biochemical
Conditions: not given
Experimental: Microsomes from Rosetta E. coli bacteria expressing recombinant human mPGES-1 is dissolved in 0.1 M KPi pH 7.4 buffer containing 2.5 mM GSH. 50 μl of the enzyme is subsequently dispensed in a 384-well plate. 0.5 μl of the inhibitor dissolved in DMSO at is thereafter added to each well and incubated for 25 minutes at room temperature.
Subsequently, 2 μl of PGH2 dissolved in an appropriate solvent is added to each well and after one minute the acidified stop solution containing FeCl2 is added. 4 μl of the total volume is transferred to a separate plate and diluted 750-fold in two separate steps before HTRF detection of PGE2.
The HTRf detection is performed by the use of a commercially available kit from CisBio essentially according to the manufacturer's protocol. Briefly, 10 μl of the diluted sample is transferred to a white 384-well plate. 5 μl of d2 and 5 μl Eu3+-Cryptate labeled anti-PGE2 is added to each well containing samples by the use of a Multidrop. The plate is covered with a plastic self-adhesive film, centrifuged at 1200 rpm for 1 minute and subsequently stored at +4° C. over night.
After over night incubation the fluorescence is measured by the use of an appropriate microplate reader. The fluorescence of europium cryptate, and d2 are measured using the following excitation and emission wavelength, europium cryptate: λmax^ex=307 nm, λmax^em=620 nm and d2: λmax^ex=620 nm, λmax^em=665 nm), respectively. The extent of the specific FRET is measured as a ratio of the emission intensity at 665 nm vs. that at 620 nm. A standard curve using synthetic PGE2 is used to quantify the amount of PGE2 in unknown samples.

Structure (SMILES) | inhibition at 10 µM [%]
Cn1c(Nc2c(Cl)cccc2Cl)nc2cc(C(=O)NC3CCC4(CC3)CC4)ncc21 [Example 425, 2-(2,6-Dichlorophenylamino)-3-methyl-N-(spiro[2.5]octan-6-yl)-3H-imidazo[4,5-c]-pyridine-6-carboxamide] | 100
Cn1c(Nc2c(Cl)cncc2Cl)nc2cc(C(=O)NCc3ncccc3C(F)(F)F)ncc21 [Example 550, 2-(3,5-Dichloropyridin-4-ylamino)-3-methyl-N-((3-trifluoromethyl-pyridin-2-yl)-methyl)-3H-imidazo[4,5-c]pyridine-6-carboxamide] | 95
Cn1c(Nc2c(Cl)cncc2Cl)nc2cc(C(=O)Nc3ccc(Br)cc3)ncc21 [Example 472, N-(4-Bromophenyl)-2-(3,5-dichloropyridin-4-ylamino)-3-methyl-3H-imidazo[4,5-c]-pyridine-6-carboxamide] | 96
Cc1cc(NC(=O)c2cc3[nH]c(Nc4c(Cl)cccc4Cl)nc3cn2)ncc1Cl [Example 718, 2-(2,6-Dichlorophenylamino)-N-(5-chloro-4-methyl-pyridin-2-yl)-1H-imidazo[4,5-c]pyridine-6-carboxamide] | 100
O=C(NC1CCC2(CC1)CC2)c1cc2[nH]c(Nc3c(Cl)cccc3Cl)nc2cn1 [Example 451, 2-(2,6-Dichlorophenylamino)-N-(spiro[2.5]octan-6-yl)-1H-imidazo[4,5-c]pyridine-6-carboxamide] | 99
Cc1cc(C(F)(F)F)cc(NC(=O)c2cc3[nH]c(Nc4c(Cl)cncc4Cl)nc3cn2)n1 [Example 733, 2-(3,5-Dichloro-pyridin-4-yl-amino)-N-(6-methyl-4-trifluoromethyl-pyridin-2-yl)-1H-imidazo[4,5-c]pyridine-6-carboxamide] | 99
O=C(Nc1cc(OC2CCOC2)ccn1)c1cc2[nH]c(Nc3c(Cl)cccc3Cl)nc2cn1 (stereo not drawn) [Example 495, 2-(2,6-Dichlorophenylamino)-N-(4-(tetrahydrofuran-3-yl-oxy)-pyridin-2-yl)-1H-imidazo[4,5-c]pyridine-6-carboxamide] | 86
Cn1c(Nc2c(Cl)cccc2Cl)nc2cc(C(=O)Nc3cc(C(F)(F)F)ccn3)ncc21 [Example 364, 2-(2,6-Dichlorophenylamino)-3-methyl-N-(4-trifluoromethyl-pyridin-2-yl)-3H-imidazo[4,5-c]pyridine-6-carboxamide] | 100
O=C(Nc1cc(C(F)(F)F)ccn1)c1cc2[nH]c(Nc3c(F)cccc3Cl)nc2cn1 [Example 729, 2-(2-Chloro-6-fluoro-phenylamino)-N-(4-trifluoromethyl-pyridin-2-yl)-1H-imidazo[4,5-c]pyridine-6-carboxamide] | 100
Cn1c(Nc2c(F)cccc2Cl)nc2cc(C(=O)N[C@H]3CC[C@H](C(F)(F)F)CC3)ncc21 [Example 431, 2-(2-Chloro-6-fluorophenylamino)-3-methyl-N-((1r,4r)-4-trifluoromethyl-cyclohexyl)-3H-imidazo[4,5-c]pyridine-6-carboxamide] | 100
Cc1cc(C)nc(NC(=O)c2cc3[nH]c(Nc4c(Cl)cccc4Cl)nc3cn2)c1 [Example 716, 2-(2,6-Dichlorophenylamino)-N-(4,6-dimethyl-pyridin-2-yl)-1H-imidazo[4,5-c]pyridine-6-carboxamide] | 100
Cn1c(Nc2c(Cl)cccc2Cl)nc2cc(C(=O)Nc3cc(C4CC4)ccn3)ncc21 [Example 462, N-(4-Cyclopropylpyridin-2-yl)-2-(2,6-dichlorophenylamino)-3-methyl-3H-imidazo[4,5-c]pyridine-6-carboxamide] | 94
O=C(Nc1cc(OC2CCCC2)ccn1)c1cc2[nH]c(Nc3c(Cl)cccc3Cl)nc2cn1 [Example 440, N-(4-(Cyclopentyloxy)pyridin-2-yl)-2-(2,6-dichlorophenylamino)-1H-imidazo[4,5-c]pyridine-6-carboxamide] | 100
O=C(Nc1cc(C(F)(F)F)cc(C2CC2)n1)c1cc2[nH]c(Nc3c(Cl)cncc3Cl)nc2cn1 [Example 740, 2-(3,5-Dichloro-pyridin-4-yl-amino)-N-(6-cyclopropyl-4-trifluoromethyl-pyridin-2-yl)-1H-imidazo[4,5-c]pyridine-6-carboxamide] | 100
O=C(NC1CCCCC1)c1cc2[nH]c(Nc3c(Cl)cccc3Cl)nc2cn1 [Example 137, 2-(2,6-Dichloro-phenylamino)-3H-imidazo[4,5-c]pyridine-6-carboxylic acid-cyclohexyl-amide] | 100
Cc1cnc(NC(=O)c2cc3[nH]c(Nc4c(Cl)cccc4Cl)nc3cn2)cc1C [Example 717, 2-(2,6-Dichlorophenylamino)-N-(4,5-dimethyl-pyridin-2-yl)-1H-imidazo[4,5-c]pyridine-6-carboxamide] | 100
Cc1cnc(NC(=O)c2cc3[nH]c(Nc4c(Cl)cncc4Cl)nc3cn2)cc1C1CC1 [Example 735, 2-(3,5-Dichloro-pyridin-4-yl-amino)-N-(4-cyclopropyl-5-methyl-pyridin-2-yl)-1H-imidazo[4,5-c]pyridine-6-carboxamide] | 99
Cc1cnc(NC(=O)c2cc3[nH]c(Nc4c(Cl)cccc4Cl)nc3cn2)cc1Cl [Example 427, N-(4-Chloro-5-methyl-pyridin-2-yl)-2-(2,6-dichlorophenylamino)-1H-imidazo[4,5-c]pyridine-6-carboxamide] | 98
Cc1cnc(NC(=O)c2cc3nc(Nc4c(Cl)cccc4Cl)n(C)c3cn2)cc1C [Example 724, 2-(2,6-Dichlorophenylamino)-3-methyl-N-(4,5-dimethyl-pyridin-2-yl)-3H-imidazo[4,5-c]pyridine-6-carboxamide] | 100
Cc1cc(NC(=O)c2cc3nc(Nc4c(Cl)cccc4Cl)n(C)c3cn2)ncc1Cl [Example 726, 2-(2,6-Dichlorophenylamino)-3-methyl-N-(5-chloro-4-methyl-pyridin-2-yl)-3H-imidazo[4,5-c]pyridine-6-carboxamide] | 100
Cn1c(Nc2cnccc2C(F)(F)F)nc2cc(C(=O)Nc3cc(C(F)(F)F)ccn3)ncc21 [Example 734, 2-(4-Trifluoromethyl-pyridin-3-ylamino)-3-methyl-N-(4-trifluoromethyl-pyridin-2-yl)-3H-imidazo[4,5-c]pyridine-6-carboxamide] | 99
O=C(Nc1ccc(C2CC2)cn1)c1cc2[nH]c(Nc3c(Cl)cccc3Cl)nc2cn1 [Example 725, 2-(2,6-Dichlorophenylamino)-N-(5-cyclopropyl-pyridin-2-yl)-1H-imidazo[4,5-c]pyridine-6-carboxamide] | 100
Cn1c(Nc2c(F)cccc2Cl)nc2cc(C(=O)Nc3cc(C(F)(F)F)ccn3)ncc21 [Example 360, 2-(2-Chloro-6-fluoro-phenylamino)-3-methyl-N-(4-trifluoromethyl-pyridin-2-yl)-3-H-imidazo[4,5-c]pyridine-6-carboxamide] | 100
O=C(N[C@H]1CC[C@H](C(F)(F)F)CC1)c1cc2[nH]c(Nc3c(Cl)cccc3Cl)nc2cn1 [Example 481, 2-(2,6-Dichlorophenylamino)-N-((1r,4r)-4-trifluoromethyl-cyclohexyl)-1H-imidazo[4,5-c]pyridine-6-carboxamide] | 98
Cn1c(Nc2c(F)cccc2Cl)nc2cc(C(=O)NC3CCCCC3)ncc21 [Example 444, 2-(2-Chloro-6-fluorophenylamino)-N-cyclohexyl-3-methyl-3H-imidazo[4,5-c]-pyridine-6-carboxamide] | 100
Cn1c(Nc2c(F)cccc2Cl)nc2cc(C(=O)NC3CCC4(CC3)CC4)ncc21 [Example 417, 2-(2-Chloro-6-fluoro-phenylamino)-3-methyl-N-(spiro[2.5]octan-6-yl)-3H-imidazo[4,5-c]pyridine-6-carboxamide] | 100
Cn1c(Nc2c(Cl)cncc2Cl)nc2cc(C(=O)NC3CCC(C)(C)CC3)ncc21 [Example 478, 2-(3,5-Dichloropyridin-4-ylamino)-N-(4,4-dimethylcyclohexyl)-3-methyl-3H-imidazo[4,5-c]pyridine-6-carboxamide] | 100
Cn1c(Nc2c(Cl)cncc2Cl)nc2cc(C(=O)Nc3cc(C(F)(F)F)ccn3)ncc21 [Example 482, 2-(3,5-Dichloropyridin-4-ylamino)-3-methy-N-(4-trifluoromethyl-pyridin-2-yl)-3H-imidazo[4,5-c]pyridine-6-carboxamide] | 98
O=C(Nc1cc(C(F)(F)F)ccn1)c1cc2[nH]c(Nc3c(F)cccc3C(F)(F)F)nc2cn1 [Example 727, 2-(2-Fluoro-6-trifluoromethyl-phenylamino)-N-(4-trifluoromethyl-pyridin-2-yl)-1H-imidazo[4,5-c]pyridine-6-carboxamide] | 99

Same assay, conditions: percentage inhibition of mPGES-1 at 10 μM (unless otherwise specified)

Structure (SMILES) | % inhib. [%]
Cn1c(Nc2c(Cl)cccc2Cl)nc2cc(C(=O)Nc3ccc(Br)cc3)cnc21 [Example 463] | 97
